Reference: patent US6455755B2, “Leukotriene B4 receptor transgenic mice” (Brigham and Women's Hospital, priority 1999, dated 2002)

Legend:
[1] = system: PMN infiltration into ear skin; assay: Ear skin inflammation model (topical application, PMN infiltration by MPO); assay type: in vivo, mouse; conditions: for percent inhibition of LTB4-induced PMN infiltration: 10 μg topical 5 min before LTB4 1 μg; for increase in PMN infiltration into skin compared to vehicle control: LTB4 1 μg topical to ear, MPO
Experimental: Ear skin inflammation model. hBLTR transgenic and wt mice were anesthetized and 16-phenoxyl-LXA4 (15(S)-16-phenoxy-17,18,19,20-tetranol-LXA4 methyl ester, prepared by total synthesis as in ref. 7 by Prof. N. A. Petasis and colleagues, Dept. of Chemistry, Univ. of Southern California) (10 μg) in 10 μl of acetone was applied to the inner side of right ears. Acetone alone was applied to the left ear as a vehicle control. Five min later, LTB4 (5S, 12R-dihydroxy-6,8,10,14-eicosatetraenoic acid; 1 μg) in 10 μl acetone was applied to both ears. Ear skin punch biopsies were collected for leukocyte MPO activity (Takano, T., Clish, C. B., Gronert, K., Petasis, N. A. and Serhan C. N. 1997. Neutrophil-mediated changes in vascular permeability are inhibited by topical application of aspirin-triggered 15-epi-lipoxin A4 and novel lipoxin B4 stable analogues. J. Clin. Invest. 101: 819-826).

[2] = system: HEK293 cells with BLTR and ALXR (stable transfectants); assay: Cytosensor microphysiometry of extracellular acidification rate (EAR) in HEK293 cells with BLTR and ALXR; assay type: cell-based, human; conditions: LXA4 1 μM 20 min prior to LTB4 1 μM
Experimental: (§1) Cloning and functional expression of hBLTR. Total RNA was isolated from retinoic acid differentiated HL-60 cells using TriZol reagent (GIBCO BRL, Grand Island, N.Y.) and reverse-transcribed for 30 min at 50° C. followed by 40 cycles of polymerase chain reactions (PCR) using Vent DNA polymerase (New England BioLabs, Beverly, Mass.) (98° C. for 1 min, 60° C. for 1 min and 72° C. for 2 min) with specific primers for hBLTR (BLTR-N: 5′[…]-3′ and BLTR-C: 5′[…]-3′) (Fiore, S., Romano, M., Reardon, E. M. and Serhan, C. N. 1993. Induction of functional lipoxin A4 receptors in HL-60 cells. Blood 81: 3395-3403). HBLTR cDNA was inserted into pGL vector (Promega) at HindII-PpuMI site downstream of CD11b promoter. HEK293 cells were transfected with this pGL-CD11b-hBLTR construct using SuperFect reagent (Qiagen, Chatsworth, Calif.). Ligand binding and intracellular Ca^2+ release were carried out as in refs. (Yokomizo, T., Izumi, T., Chang, K., Takuwa, Y. and Shimizu, T. 1997. A G-protein-coupled receptor for leukotriene B4 that mediates chemotaxis. Nature 387: 620-624) and (Ng, C. F., Sun, F. F., Taylor, B. M., Wolin, M. S. and Wong, P. Y. 1991. Functional properties of guinea pig eosinophil leukotriene B4receptors. J. Immunol. 147: 3096-3103), respectively. […]

BLTR [3] = biological target: T1, BLTR (Homo sapiens, UniProt Q15722); assay: Displacement of specific [3H]-LTB4 binding in HEK293 cells stably transfected with BLTR; set-up: expressed in transfected cells
T1 sequence (Q15722 whole entry): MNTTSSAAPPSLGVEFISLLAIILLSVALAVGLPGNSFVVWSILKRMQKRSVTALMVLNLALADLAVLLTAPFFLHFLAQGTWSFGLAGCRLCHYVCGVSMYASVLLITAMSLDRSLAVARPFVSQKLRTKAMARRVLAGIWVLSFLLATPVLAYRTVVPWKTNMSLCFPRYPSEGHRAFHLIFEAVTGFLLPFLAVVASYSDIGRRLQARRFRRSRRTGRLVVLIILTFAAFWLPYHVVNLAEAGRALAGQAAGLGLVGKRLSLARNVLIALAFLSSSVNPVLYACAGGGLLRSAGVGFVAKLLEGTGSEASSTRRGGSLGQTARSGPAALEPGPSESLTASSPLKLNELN
Experimental: as §1

BLTR [4] = biological target: T1, BLTR; assay: Intracellular Ca2+ mobilization in HEK293 cells transfected with pGL-CD11b-hBLTR; assay type: cell-based; set-up: expressed in transfected cells; host or cells: HEK293 (transient transfection with pGL-CD11b-hBLTR, SuperFect); conditions: LTB4 100 nM; transiently transfected HEK293 cells
[5] = system: PMN infiltration into lungs; assay: Hind limb ischemia-reperfusion induced second organ injury (lung PMN infiltration by MPO); assay type: in vivo, mouse; conditions: hBLTR transgenic mice
Source text: Hind limb ischemia-reperfusion induced second organ injury. Mice were anesthetized and ATL analog 15-epi-16-para-fluoro-phenoxy-LXA4 (15(R)-16-para-fluoro-phenoxy-17,18,19,20-tetranol-LXA4 methyl ester), prepared as in (Takano, T., Clish, C. B., Gronert, K., Petasis, N. A. and Serhan C. N. 1997. Neutrophil-mediated changes in vascular permeability are inhibited by topical application of aspirin-triggered 15-epi-lipoxin A4 and novel lipoxin B4 stable analogues. J. Clin. Invest. 101: 819-826) or vehicle was administered intravenously to the transgenic mice. Approximately five minutes later, a tourniquet was placed proximally around each hind limb and secured with a metal clamp (Goldman, G., Welboum, R., Klausner, J. M., Kobzik, L., Valeri, C. R. et al. 1992. Mast cells and leukotrienes mediate neutrophil sequestration and lung edema after remote ischemia in rodents. Surgery 112: 578-586). Vascular occlusion was verified by engorgement and discoloration of the feet. After 3 hours of ischemia, the tourniquets were removed and followed by 3 hours of reperfusion. […] The left lungs were harvested, homogenized in 1.5 ml of potassium phosphate buffer (pH 7.4) and then centrifuged at 14,000 rpm (5 min). […]

## COC(=O)CCC[C@H](O)[C@H](O)C=CC=CC=CC=C[C@H](O)COc1ccccc1 [LXA4 stable analog, 15(S)-16-phenoxy-17,18,19,20-tetranol-LXA4 methyl ester]
[1]; MPO activities converted to total number of PMN, 10 μg topical
  number of PMN whose infiltration was inhibited, hBLTR transgenic relative to wt mice: 3 times
[1]; hBLTR transgenic mice
  percent inhibition of LTB4-induced PMN infiltration: ~45%
[1]; hBLTR transgenic mice, 10 μg topical, representative data from n=3
  effect on PMN infiltration: clearly able to block PMN infiltration
[1]; wt mice
  percent inhibition of LTB4-induced PMN infiltration: ~37%

## CCCCC[C@H](O)/C=C/C=C\C=C\C=C\[C@@H](O)[C@@H](O)CCCC(=O)O (relative stereo) [LXA4, 5(S), 6(R), 15(S)-trihydroxy-7,9,13-trans-11-cis eicosatetraenoic acid]
[2]
  effect on LTB4-evoked extracellular acidification rate: nor did LXA4 or its analogs affect LTB4-evoked extracellular acidification rate
BLTR [3]
  competition with [3H]-LTB4 binding: did not compete with [^3H]-LTB4 binding

## CCCCCC=CC[C@@H](O)C=CC=CC=C[C@@H](O)CCCC(=O)O [LTB4, 5S, 12R-dihydroxy-6,8,10,14-eicosatetraenoic acid, reference compound]
[1]; hBLTR transgenic mice, n=10
  increase in PMN infiltration into skin compared to vehicle control: 7.4±0.9 fold
[1]; wt mice, n=7
  increase in PMN infiltration into skin compared to vehicle control: 3.2±0.5 fold
BLTR [4]
  mobilization of intracellular Ca2+: intracellular Ca^2+ was mobilized

## COC(=O)CCC[C@H](O)[C@H](O)C=CC=CC=CC=C[C@@H](O)COc1ccc(F)cc1 [ATL, 15(R)-16-para-fluoro-phenoxy-17,18,19,20-tetranol-LXA4 methyl ester]
[5]; 10 μg intravenous prior to ischemia-reperfusion, p=0.04, n=3
  PMN infiltration into lungs vs vehicle: significantly diminished PMN infiltration into lungs
[5]; intravenous prior to ischemia-reperfusion
  inhibition of PMN infiltration (change): 40-60%
